In this assay the target is T1, KIT Y823D (Homo sapiens, UniProt P10721, Y823D).
T1 construct: purchased Thermo Fisher Scientific (Life Technologies) SelectScreen
In words: SelectScreen LanthaScreen. Conditions: read-out: % displacement. The format is binding. Put shortly: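 NU5455 was profiled across the SelectScreen Broad panel of kinase activity and binding assays. Z'LYTE reactions such as CSF1R ran at apparent Km ATP, while the Adapta CAMK1 assay used ATP listed as 10. Values are given as percent.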

T1 sequence (P10721 26-976 Y823D): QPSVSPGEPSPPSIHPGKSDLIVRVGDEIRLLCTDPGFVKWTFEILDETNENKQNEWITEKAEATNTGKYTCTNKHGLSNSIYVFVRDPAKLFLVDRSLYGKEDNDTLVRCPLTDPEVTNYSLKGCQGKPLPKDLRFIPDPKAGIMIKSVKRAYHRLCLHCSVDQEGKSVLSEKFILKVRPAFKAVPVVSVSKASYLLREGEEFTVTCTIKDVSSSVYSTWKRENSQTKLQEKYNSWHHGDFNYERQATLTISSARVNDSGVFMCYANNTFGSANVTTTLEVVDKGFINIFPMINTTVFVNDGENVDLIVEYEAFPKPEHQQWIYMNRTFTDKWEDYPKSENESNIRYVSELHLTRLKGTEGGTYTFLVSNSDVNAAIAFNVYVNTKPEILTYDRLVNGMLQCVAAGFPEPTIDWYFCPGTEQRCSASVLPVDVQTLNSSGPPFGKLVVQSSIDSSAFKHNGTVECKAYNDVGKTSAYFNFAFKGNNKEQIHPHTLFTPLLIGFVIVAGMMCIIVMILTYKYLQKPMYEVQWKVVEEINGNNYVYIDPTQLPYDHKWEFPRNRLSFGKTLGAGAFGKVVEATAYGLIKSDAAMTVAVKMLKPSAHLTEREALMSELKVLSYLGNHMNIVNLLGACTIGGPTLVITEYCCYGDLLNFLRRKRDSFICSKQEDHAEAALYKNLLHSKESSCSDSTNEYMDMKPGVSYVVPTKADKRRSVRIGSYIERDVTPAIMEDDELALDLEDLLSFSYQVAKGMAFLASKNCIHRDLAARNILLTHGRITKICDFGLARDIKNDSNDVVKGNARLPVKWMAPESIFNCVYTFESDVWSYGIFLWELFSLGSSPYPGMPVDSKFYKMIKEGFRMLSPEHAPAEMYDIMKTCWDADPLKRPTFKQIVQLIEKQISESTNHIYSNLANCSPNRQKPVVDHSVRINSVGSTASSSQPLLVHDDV

With `CN(C(=O)CN1CCOCC1)c1ccc2sc3c(-c4cccc5c(=O)cc(N6CC7CCC(C6)O7)oc45)cccc3c2c1` [NU5455], the inhibition at 1 µM worked out at 5.6%.

The values above are taken from paper PMC6934184, “Selective DNA-PKcs inhibition extends the therapeutic index of localized radiotherapy and chemotherapy” (The Journal of Clinical Investigation, 2019).
